Source: the supplement of paper PMC10307832

Assays:
Experiment in all cases: relative viability (nuclei count vs DMSO), 5 days (fraction); higher = more cells survive
Sunitinib = compound: CCN(CC)CCNC(=O)c1c(C)[nH]c(/C=C2\C(=O)Nc3ccc(F)cc32)c1C [Sunitinib]
How it was run: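 A plate was accepted only when its control CV was below 25% and the cells had doubled at least once. Viability is defined from nuclear counts as treated wells divided by vehicle wells, with the median taken across plates. That median covers lung cancer cell lines grown in 1536-well plates, dosed by pinning at five √10-spaced library-drug concentrations, and counted in MetaXpress from 4× Hoechst images after 5 days.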

Sunitinib + Palbociclib = compound: CCN(CC)CCNC(=O)c1c(C)[nH]c(/C=C2\C(=O)Nc3ccc(F)cc32)c1C [Sunitinib] + CC(=O)c1c(C)c2cnc(Nc3ccc(N4CCNCC4)cn3)nc2n(C2CCCC2)c1=O [Palbociclib] (partner 0.5 µM)
How it was run: (§1)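 Cells from lung cancer lines were seeded into 1536-well plates and, one day later, dosed by pin tool. Treatments were either a single drug or a fixed dose of an anchor drug with five library-drug doses (not always all listed) in √10 steps. After 5 days, nuclei were stained in a one-step fixation (final 0.05% Triton X-100, 1% formaldehyde, 1 ug/ml Hoechst) and counted on 4× images, and relative viability is the treated-to-vehicle nuclei ratio, as the median of duplicate plates.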

Sunitinib + Foretinib = compound: CCN(CC)CCNC(=O)c1c(C)[nH]c(/C=C2\C(=O)Nc3ccc(F)cc32)c1C [Sunitinib] + COc1cc2c(Oc3ccc(NC(=O)C4(C(=O)Nc5ccc(F)cc5)CC4)cc3F)ccnc2cc1OCCCN1CCOCC1 [Foretinib] (partner 0.25 µM)
How it was run: as §1

Sunitinib + OSI-027 = compound: CCN(CC)CCNC(=O)c1c(C)[nH]c(/C=C2\C(=O)Nc3ccc(F)cc32)c1C [Sunitinib] + COc1cccc2cc(-c3nc([C@H]4CC[C@H](C(=O)O)CC4)n4ncnc(N)c34)[nH]c12 [OSI-027] (partner 0.5 µM)
How it was run: as §1

NCI-H1755 was tested, and the relative viability (Sunitinib; 0.2 µM) was 1.04, the relative viability (Sunitinib; 0.6325 µM) was 1.03 and the relative viability (Sunitinib; 2 µM) was 1.05. The relative viability (Sunitinib + Palbociclib; first compound 0.02 µM) was 0.423, the relative viability (Sunitinib + Palbociclib; first compound 0.06325 µM) was 0.46 and the relative viability (Sunitinib + Palbociclib; first compound 0.2 µM) was 0.49. The relative viability (Sunitinib + Palbociclib; first compound 0.6325 µM) was 0.459, the relative viability (Sunitinib + Palbociclib; first compound 2 µM) was 0.468 and the relative viability (Sunitinib + Foretinib; first compound 0.02 µM) was 0.891. It also gave a relative viability (Sunitinib + Foretinib; first compound 0.06325 µM) of 0.897, a relative viability (Sunitinib + Foretinib; first compound 0.2 µM) of 0.959 and a relative viability (Sunitinib + Foretinib; first compound 0.6325 µM) of 0.981. The relative viability (Sunitinib + Foretinib; first compound 2 µM) was 0.936, the relative viability (Sunitinib + OSI-027; first compound 0.02 µM) was 0.745 and the relative viability (Sunitinib + OSI-027; first compound 0.06325 µM) was 0.821. It also gave a relative viability (Sunitinib + OSI-027; first compound 0.2 µM) of 0.743, a relative viability (Sunitinib + OSI-027; first compound 0.6325 µM) of 0.748 and a relative viability (Sunitinib + OSI-027; first compound 2 µM) of 0.761.

NCI-H1793 showed a relative viability (Sunitinib; 0.06325 µM) of 0.974, a relative viability (Sunitinib; 0.6325 µM) of 0.964 and a relative viability (Sunitinib; 2 µM) of 0.831. It also gave a relative viability (Sunitinib + Palbociclib; first compound 0.06325 µM) of 0.307, a relative viability (Sunitinib + Palbociclib; first compound 0.2 µM) of 0.311 and a relative viability (Sunitinib + Palbociclib; first compound 0.6325 µM) of 0.299. The relative viability (Sunitinib + Palbociclib; first compound 2 µM) was 0.319, the relative viability (Sunitinib + Foretinib; first compound 0.02 µM) was 0.649 and the relative viability (Sunitinib + Foretinib; first compound 0.06325 µM) was 0.675. The relative viability (Sunitinib + Foretinib; first compound 0.2 µM) was 0.753, the relative viability (Sunitinib + Foretinib; first compound 0.6325 µM) was 0.723 and the relative viability (Sunitinib + Foretinib; first compound 2 µM) was 0.593. It also gave a relative viability (Sunitinib + OSI-027; first compound 0.02 µM) of 0.278, a relative viability (Sunitinib + OSI-027; first compound 0.06325 µM) of 0.245 and a relative viability (Sunitinib + OSI-027; first compound 0.2 µM) of 0.252. The relative viability (Sunitinib + OSI-027; first compound 0.6325 µM) was 0.274 and the relative viability (Sunitinib + OSI-027; first compound 2 µM) was 0.194.

Work on NCI-H1915 yielded a relative viability (Sunitinib; 0.02 µM) of 0.943, a relative viability (Sunitinib; 0.06325 µM) of 1.05 and a relative viability (Sunitinib; 0.2 µM) of 1.02. The relative viability (Sunitinib; 0.6325 µM) was 1.03, the relative viability (Sunitinib; 2 µM) was 1.07 and the relative viability (Sunitinib + Palbociclib; first compound 0.02 µM) was 0.472. For the same cell line, the relative viability (Sunitinib + Palbociclib; first compound 0.06325 µM) was 0.545, the relative viability (Sunitinib + Palbociclib; first compound 0.2 µM) was 0.573 and the relative viability (Sunitinib + Palbociclib; first compound 0.6325 µM) was 0.502. It also gave a relative viability (Sunitinib + Palbociclib; first compound 2 µM) of 0.579, a relative viability (Sunitinib + Foretinib; first compound 0.02 µM) of 1.07 and a relative viability (Sunitinib + Foretinib; first compound 0.06325 µM) of 1.11. It also gave a relative viability (Sunitinib + Foretinib; first compound 0.2 µM) of 1.14, a relative viability (Sunitinib + Foretinib; first compound 0.6325 µM) of 1.13 and a relative viability (Sunitinib + Foretinib; first compound 2 µM) of 1.15. For the same cell line, the relative viability (Sunitinib + OSI-027; first compound 0.02 µM) was 0.605, the relative viability (Sunitinib + OSI-027; first compound 0.06325 µM) was 0.645 and the relative viability (Sunitinib + OSI-027; first compound 0.2 µM) was 0.71. For the same cell line, the relative viability (Sunitinib + OSI-027; first compound 0.6325 µM) was 0.612 and the relative viability (Sunitinib + OSI-027; first compound 2 µM) was 0.618.

NCI-H1944 was tested, and the relative viability (Sunitinib; 0.02 µM) was 0.914, the relative viability (Sunitinib; 0.06325 µM) was 1.09 and the relative viability (Sunitinib; 0.2 µM) was 1.15. For the same cell line, the relative viability (Sunitinib; 0.6325 µM) was 1.05, the relative viability (Sunitinib; 2 µM) was 1.1 and the relative viability (Sunitinib + Palbociclib; first compound 0.02 µM) was 0.337. The relative viability (Sunitinib + Palbociclib; first compound 0.06325 µM) was 0.317, the relative viability (Sunitinib + Palbociclib; first compound 0.2 µM) was 0.378 and the relative viability (Sunitinib + Palbociclib; first compound 0.6325 µM) was 0.346. For the same cell line, the relative viability (Sunitinib + Palbociclib; first compound 2 µM) was 0.339, the relative viability (Sunitinib + Foretinib; first compound 0.02 µM) was 0.738 and the relative viability (Sunitinib + Foretinib; first compound 0.06325 µM) was 1. It also gave a relative viability (Sunitinib + Foretinib; first compound 0.2 µM) of 0.962, a relative viability (Sunitinib + Foretinib; first compound 0.6325 µM) of 0.944 and a relative viability (Sunitinib + Foretinib; first compound 2 µM) of 0.863. For the same cell line, the relative viability (Sunitinib + OSI-027; first compound 0.02 µM) was 0.365, the relative viability (Sunitinib + OSI-027; first compound 0.06325 µM) was 0.437 and the relative viability (Sunitinib + OSI-027; first compound 0.2 µM) was 0.514. For the same cell line, the relative viability (Sunitinib + OSI-027; first compound 0.6325 µM) was 0.513 and the relative viability (Sunitinib + OSI-027; first compound 2 µM) was 0.409.

NCI-H1975 gave a relative viability (Sunitinib; 0.02 µM) of 0.911, a relative viability (Sunitinib; 0.2 µM) of 1.06 and a relative viability (Sunitinib; 0.6325 µM) of 0.963. The relative viability (Sunitinib; 2 µM) was 0.855, the relative viability (Sunitinib + Palbociclib; first compound 0.02 µM) was 0.531 and the relative viability (Sunitinib + Palbociclib; first compound 0.06325 µM) was 0.715. For the same cell line, the relative viability (Sunitinib + Palbociclib; first compound 0.2 µM) was 0.76, the relative viability (Sunitinib + Palbociclib; first compound 0.6325 µM) was 0.727 and the relative viability (Sunitinib + Palbociclib; first compound 2 µM) was 0.473. For the same cell line, the relative viability (Sunitinib + Foretinib; first compound 0.02 µM) was 0.899, the relative viability (Sunitinib + Foretinib; first compound 0.06325 µM) was 1.03 and the relative viability (Sunitinib + Foretinib; first compound 0.2 µM) was 1.07. It also gave a relative viability (Sunitinib + Foretinib; first compound 0.6325 µM) of 1.01, a relative viability (Sunitinib + Foretinib; first compound 2 µM) of 1.01 and a relative viability (Sunitinib + OSI-027; first compound 0.02 µM) of 0.62. For the same cell line, the relative viability (Sunitinib + OSI-027; first compound 0.06325 µM) was 0.826, the relative viability (Sunitinib + OSI-027; first compound 0.2 µM) was 0.805 and the relative viability (Sunitinib + OSI-027; first compound 0.6325 µM) was 0.633. It also gave a relative viability (Sunitinib + OSI-027; first compound 2 µM) of 0.498.

NCI-H1993 gave a relative viability (Sunitinib; 0.02 µM) of 0.963, a relative viability (Sunitinib; 0.06325 µM) of 0.992 and a relative viability (Sunitinib; 0.2 µM) of 1.08. It also gave a relative viability (Sunitinib; 0.6325 µM) of 0.915, a relative viability (Sunitinib; 2 µM) of 0.98 and a relative viability (Sunitinib + Palbociclib; first compound 0.02 µM) of 0.635. For the same cell line, the relative viability (Sunitinib + Palbociclib; first compound 0.06325 µM) was 0.7, the relative viability (Sunitinib + Palbociclib; first compound 0.2 µM) was 0.687 and the relative viability (Sunitinib + Palbociclib; first compound 0.6325 µM) was 0.815. It also gave a relative viability (Sunitinib + Palbociclib; first compound 2 µM) of 0.622, a relative viability (Sunitinib + Foretinib; first compound 0.02 µM) of 0.746 and a relative viability (Sunitinib + Foretinib; first compound 0.06325 µM) of 0.691. It also gave a relative viability (Sunitinib + Foretinib; first compound 0.2 µM) of 0.789, a relative viability (Sunitinib + Foretinib; first compound 0.6325 µM) of 0.685 and a relative viability (Sunitinib + Foretinib; first compound 2 µM) of 0.73. The relative viability (Sunitinib + OSI-027; first compound 0.02 µM) was 0.598, the relative viability (Sunitinib + OSI-027; first compound 0.06325 µM) was 0.482 and the relative viability (Sunitinib + OSI-027; first compound 0.2 µM) was 0.551. For the same cell line, the relative viability (Sunitinib + OSI-027; first compound 0.6325 µM) was 0.568 and the relative viability (Sunitinib + OSI-027; first compound 2 µM) was 0.554.

With NCI-H2009 the relative viability (Sunitinib; 0.02 µM) was 0.957, the relative viability (Sunitinib; 0.06325 µM) was 1.07 and the relative viability (Sunitinib; 0.2 µM) was 1.07. The relative viability (Sunitinib; 0.6325 µM) was 1.11, the relative viability (Sunitinib + Palbociclib; first compound 0.02 µM) was 0.183 and the relative viability (Sunitinib + Palbociclib; first compound 0.06325 µM) was 0.241. For the same cell line, the relative viability (Sunitinib + Palbociclib; first compound 0.2 µM) was 0.212, the relative viability (Sunitinib + Palbociclib; first compound 0.6325 µM) was 0.231 and the relative viability (Sunitinib + Palbociclib; first compound 2 µM) was 0.25. The relative viability (Sunitinib + Foretinib; first compound 0.02 µM) was 1.19, the relative viability (Sunitinib + Foretinib; first compound 0.06325 µM) was 1.25 and the relative viability (Sunitinib + Foretinib; first compound 0.2 µM) was 1.31. It also gave a relative viability (Sunitinib + Foretinib; first compound 0.6325 µM) of 1.27, a relative viability (Sunitinib + Foretinib; first compound 2 µM) of 1.3 and a relative viability (Sunitinib + OSI-027; first compound 0.02 µM) of 0.578. The relative viability (Sunitinib + OSI-027; first compound 0.06325 µM) was 0.772, the relative viability (Sunitinib + OSI-027; first compound 0.2 µM) was 0.704 and the relative viability (Sunitinib + OSI-027; first compound 0.6325 µM) was 0.771. For the same cell line, the relative viability (Sunitinib + OSI-027; first compound 2 µM) was 0.666.

NCI-H2023 was tested, and the relative viability (Sunitinib; 0.02 µM) was 0.874, the relative viability (Sunitinib; 0.06325 µM) was 1.09 and the relative viability (Sunitinib; 0.2 µM) was 1.07. It also gave a relative viability (Sunitinib; 0.6325 µM) of 1.03, a relative viability (Sunitinib; 2 µM) of 0.967 and a relative viability (Sunitinib + Palbociclib; first compound 0.02 µM) of 0.361. It also gave a relative viability (Sunitinib + Palbociclib; first compound 0.06325 µM) of 0.424, a relative viability (Sunitinib + Palbociclib; first compound 0.2 µM) of 0.456 and a relative viability (Sunitinib + Palbociclib; first compound 0.6325 µM) of 0.437. It also gave a relative viability (Sunitinib + Palbociclib; first compound 2 µM) of 0.343, a relative viability (Sunitinib + Foretinib; first compound 0.02 µM) of 0.739 and a relative viability (Sunitinib + Foretinib; first compound 0.06325 µM) of 0.887. It also gave a relative viability (Sunitinib + Foretinib; first compound 0.2 µM) of 0.981, a relative viability (Sunitinib + Foretinib; first compound 0.6325 µM) of 0.659 and a relative viability (Sunitinib + Foretinib; first compound 2 µM) of 0.78. The relative viability (Sunitinib + OSI-027; first compound 0.02 µM) was 0.341, the relative viability (Sunitinib + OSI-027; first compound 0.06325 µM) was 0.437 and the relative viability (Sunitinib + OSI-027; first compound 0.2 µM) was 0.399. The relative viability (Sunitinib + OSI-027; first compound 0.6325 µM) was 0.398 and the relative viability (Sunitinib + OSI-027; first compound 2 µM) was 0.289.
